Experimental data reported in US20250066303A1, “ARYL TETRAHYDROPYRIDINE DERIVATIVE OR SALT THEREOF, PEST CONTROL AGENT CONTAINING SAME, AND METHOD FOR USE THEREOF” (NIHON NOHYAKU CO., LTD., priority 2021, published 2025).

Columns and labels:
Plutella xylostella = assay: Insecticidal test against Plutella xylostella; settings: 500 ppm drug solution, Chinese cabbage seedlings with eggs immersed about 30 sec, six days after immersion, 25° C.
Source text: Insecticidal Test Against Plutella xylostella
Six days after the immersion in the drug solution, the number of surviving insects was examined. […] In triplicate using 10 per plot.

Laodelphax striatellus = assay: Insecticidal test against Laodelphax striatellus; settings: 500 ppm drug solution, rice seedlings immersed 30 seconds, three-instar insects, eight days after inoculation
[1] = system: Frankliniella occidentalis; assay: Insecticidal test against Frankliniella occidentalis; settings: 500 ppm drug solution sprayed on hatched larvae on Phaseolus vulgaris leaf pieces, four days after treatment
Source text: Insecticidal Test Against Frankliniella occidentalis
Female adults of Frankliniella occidentalis were inoculated onto Phaseolus vulgaris leaf pieces, and after allowing them to lay eggs for one day, the female adults were removed. […] Four days after the treatment, the number of surviving larvae of this species larvae was examined. […] In duplicate.

Dirofilaria immitis = assay: Influence evaluation test on the growth of Dirofilaria immitis; settings: 168 h, read-out: development inhibition rate from the L3 stage larva to the L4-stage larva

CN1C(=O)C(C(=O)Nc2ccc(Cl)cc2)=C(O)CC1c1ccc(C(F)(F)F)cc1 (centres unmarked) [1-4]
corrected mortality, rating of assessment (Plutella xylostella): D or higher | corrected mortality, rating of assessment (Laodelphax striatellus): D or higher

O=C(Nc1ccc(F)cc1)C1=C(O)CC(c2ccc(C(F)(F)F)cc2)N(Cc2ccccc2)C1=O (centres unmarked) [1-5]
corrected mortality, rating of assessment (Plutella xylostella): D or higher | corrected mortality, rating of assessment [1]: D or higher

CN1C(=O)C(C(=S)Nc2ccc(F)cc2)=C(O)CC1c1ccc(C(F)(F)F)cc1 (centres unmarked) [1-8]
corrected mortality, rating of assessment (Plutella xylostella): D or higher | corrected mortality, rating of assessment [1]: D or higher

CN1C(=O)C(C(=O)Nc2ccc(F)cn2)=C(O)CC1c1ccc(C(F)(F)F)cc1 (centres unmarked) [1-10]
corrected mortality, rating of assessment (Plutella xylostella): D or higher

CN1C(=O)C(C(=S)Nc2ccc(F)cn2)=C(O)CC1c1ccc(C(F)(F)F)cc1 (centres unmarked) [1-11]
corrected mortality, rating of assessment (Plutella xylostella): D or higher

CN1C(=O)C(C(=O)Nc2ccc(F)cc2)=C(O)CC1c1ccc(C(F)(F)F)nc1 (centres unmarked) [1-12]
corrected mortality, rating of assessment (Plutella xylostella): D or higher | corrected mortality, rating of assessment (Laodelphax striatellus): D or higher

CN1C(=O)C(C(=O)Nc2ccc(F)cn2)=C(O)CC1c1ccc(C(F)(F)F)nc1 (centres unmarked) [1-13]
corrected mortality, rating of assessment (Plutella xylostella): D or higher | corrected mortality, rating of assessment (Laodelphax striatellus): D or higher

CN1C(=O)C(C(=O)Nc2ccc(F)nc2)=C(O)CC1c1ccc(C(F)(F)F)cc1 (centres unmarked) [1-14]
corrected mortality, rating of assessment (Plutella xylostella): D or higher | corrected mortality, rating of assessment (Laodelphax striatellus): D or higher | corrected mortality, rating of assessment [1]: D or higher

CN1C(=O)C(C(=O)Nc2ncc(F)cn2)=C(O)CC1c1ccc(C(F)(F)F)cc1 (centres unmarked) [1-15]
corrected mortality, rating of assessment (Plutella xylostella): D or higher

C#CCNC(=O)C1=C(O)CC(c2ccc(C(F)(F)F)cc2)N(C)C1=O (centres unmarked) [1-27]
corrected mortality, rating of assessment (Plutella xylostella): D or higher

CCCN1C(=O)C(C(=O)Nc2ccc(F)cn2)=C(O)CC1c1ccc(C(F)(F)F)nc1 (centres unmarked) [1-31]
corrected mortality, rating of assessment (Plutella xylostella): D or higher | corrected mortality, rating of assessment (Laodelphax striatellus): D or higher | corrected mortality, rating of assessment [1]: D or higher

CCCN1C(=O)C(C(=O)Nc2ccc(F)cc2)=C(O)CC1c1ccc(C(F)(F)F)nc1 (centres unmarked) [1-32]
corrected mortality, rating of assessment (Plutella xylostella): D or higher | corrected mortality, rating of assessment (Laodelphax striatellus): D or higher

C#CCN1C(=O)C(C(=O)Nc2cc(C)on2)=C(O)CC1c1ccc(C(F)(F)F)nc1 (centres unmarked) [1-33]
corrected mortality, rating of assessment (Plutella xylostella): D or higher | corrected mortality, rating of assessment (Laodelphax striatellus): D or higher | corrected mortality, rating of assessment [1]: D or higher

C#CCN1C(=O)C(C(=O)Nc2ccn(C)n2)=C(O)CC1c1ccc(C(F)(F)F)nc1 (centres unmarked) [1-34]
corrected mortality, rating of assessment (Plutella xylostella): D or higher | corrected mortality, rating of assessment (Laodelphax striatellus): D or higher

C#CCN1C(=O)C(C(=O)Nc2ccnc(F)c2)=C(O)CC1c1ccc(C(F)(F)F)nc1 (centres unmarked) [1-35]
corrected mortality, rating of assessment (Plutella xylostella): D or higher | corrected mortality, rating of assessment (Laodelphax striatellus): D or higher

C#CCN1C(=O)C(C(=O)Nc2ccc(F)cn2)=C(O)CC1c1ccc(Cl)nc1 (centres unmarked) [1-36]
corrected mortality, rating of assessment (Plutella xylostella): D or higher | corrected mortality, rating of assessment (Laodelphax striatellus): D or higher | corrected mortality, rating of assessment [1]: D or higher

C#CCN1C(=O)C(C(=O)Nc2ccc(F)cn2)=C(O)CC1c1ccc(SC)cc1 (centres unmarked) [1-37]
corrected mortality, rating of assessment (Plutella xylostella): D or higher | corrected mortality, rating of assessment (Laodelphax striatellus): D or higher

C#CCN1C(=O)C(C(=O)Nc2ccc(F)cn2)=C(O)CC1c1ccc([S+](C)[O-])cc1 (centres unmarked) [1-38]
corrected mortality, rating of assessment (Plutella xylostella): D or higher | corrected mortality, rating of assessment (Laodelphax striatellus): D or higher

C#CCN1C(=O)C(C(=O)Nc2ccc(F)cn2)=C(O)CC1c1ccc(S(C)(=O)=O)cc1 (centres unmarked) [1-39]
corrected mortality, rating of assessment (Plutella xylostella): D or higher | corrected mortality, rating of assessment (Laodelphax striatellus): D or higher

C#CCN1C(=O)C(C(=O)Nc2ccc(SC)cc2)=C(O)CC1c1ccc(C(F)(F)F)nc1 (centres unmarked) [1-41]
corrected mortality, rating of assessment (Laodelphax striatellus): D or higher

C#CCN1C(=O)C(C(=O)Nc2ccc([S+](C)[O-])cc2)=C(O)CC1c1ccc(C(F)(F)F)nc1 (centres unmarked) [1-42]
corrected mortality, rating of assessment (Laodelphax striatellus): D or higher

C#CCN1C(=O)C(C(=O)Nc2ccc(S(C)(=O)=O)cc2)=C(O)CC1c1ccc(C(F)(F)F)nc1 (centres unmarked) [1-43]
corrected mortality, rating of assessment (Laodelphax striatellus): D or higher

C#CCN1C(=O)C(C(=O)Nc2ccc(F)cc2)=C(O)CC1c1ccc(SC)cc1 (centres unmarked) [1-44]
corrected mortality, rating of assessment (Plutella xylostella): D or higher

CN1C(=O)C(C(=O)Nc2ccc(SC(F)(F)F)cc2)=C(O)CC1c1ccc(C(F)(F)F)nc1 (centres unmarked) [1-49]
corrected mortality, rating of assessment (Plutella xylostella): D or higher

CN1C(=O)C(C(=O)Nc2ccc(NS(C)(=O)=O)cc2)=C(O)CC1c1ccc(C(F)(F)F)nc1 (centres unmarked) [1-60]
corrected mortality, rating of assessment (Plutella xylostella): D or higher

O=C1NCC(c2ccccc2C(F)(F)F)C(O)=C1C(=O)Nc1ccccc1F (centres unmarked) [3-3]
corrected mortality, rating of assessment (Plutella xylostella): D or higher

O=C1NCC(c2ccc(Cl)cc2)C(O)=C1C(=O)Nc1ccc(F)cc1 (centres unmarked) [3-10]
corrected mortality, rating of assessment (Plutella xylostella): D or higher

CN1CC(C)(c2ccc(C(F)(F)F)cc2)C(O)=C(C(=O)Nc2ccc(F)cc2)C1=O (centres unmarked) [3-11]
corrected mortality, rating of assessment (Plutella xylostella): D or higher

CN1CC(C)(c2ccc(C(F)(F)F)cc2)C(O)=C(C(=O)Nc2ccc(C(F)(F)F)cc2)C1=O (centres unmarked) [3-12]
corrected mortality, rating of assessment (Plutella xylostella): D or higher

CCC1(c2ccc(C(F)(F)F)cc2)CN(C)C(=O)C(C(=S)Nc2ccc(F)cn2)=C1O (centres unmarked) [3-23]
corrected mortality, rating of assessment (Plutella xylostella): D or higher | corrected mortality, rating of assessment (Laodelphax striatellus): D or higher

CCC1(c2ccc(C(F)(F)F)cc2)CNC(=O)C(C(=O)Nc2ccc(F)cc2)=C1O (centres unmarked) [3-24]
corrected mortality, rating of assessment (Plutella xylostella): D or higher | corrected mortality, rating of assessment (Laodelphax striatellus): D or higher

CCC1(c2ccc(C(F)(F)F)cc2)CN(C)C(=O)C(C(=O)Nc2ncc(F)cn2)=C1O (centres unmarked) [3-26]
corrected mortality, rating of assessment (Laodelphax striatellus): D or higher

CCC1(c2ccc(C(F)(F)F)cc2)CN(C)C(=O)C(C(=O)NN2CCOCC2)=C1O (centres unmarked) [3-27]
corrected mortality, rating of assessment (Laodelphax striatellus): D or higher

CCC1(c2ccc(C(F)(F)F)cc2)CN(C)C(=O)C(C(=O)Nc2cnc3ccccc3c2)=C1O (centres unmarked) [3-29]
corrected mortality, rating of assessment (Plutella xylostella): D or higher

CCC1(c2ccc(C(F)(F)F)cc2)CN(C)C(=O)C(C(=O)Nc2ccc(OC)cc2)=C1O (centres unmarked) [3-31]
corrected mortality, rating of assessment (Plutella xylostella): D or higher | corrected mortality, rating of assessment (Laodelphax striatellus): D or higher

CCC1(c2ccc(C(F)(F)F)cc2)CN(C)C(=O)C(C(=O)Nc2ccc(C)cc2)=C1O (centres unmarked) [3-34]
corrected mortality, rating of assessment (Plutella xylostella): D or higher

CCC1(c2ccc(C(F)(F)F)cc2)CN(C)C(=O)C(C(=O)Nc2ccc(S(C)(=O)=O)cc2)=C1O (centres unmarked) [3-35]
corrected mortality, rating of assessment (Plutella xylostella): D or higher | corrected mortality, rating of assessment (Laodelphax striatellus): D or higher

CCC1(c2ccc(C(F)(F)F)cc2)CN(C)C(=O)C(C(=O)Nc2ccc(C3CC3)cc2C)=C1O (centres unmarked) [3-38]
corrected mortality, rating of assessment (Plutella xylostella): D or higher

CN1C(=O)C(C(=O)Nc2ccc(C(F)(F)F)cc2)=C(O)CC1c1ccc(C(F)(F)F)cc1 (centres unmarked) [compound No. 1-1, 4-hydroxy-1-methyl-2-oxo-N, 6-bis(4-(trifluoromethyl)phenyl)-1,2,5,6-tetrahydropyridine-3-carboxamide]
corrected mortality, rating of assessment (Plutella xylostella): D or higher

CN1C(=O)C(C(=O)Nc2ccc(OC(F)(F)F)cc2)=C(O)CC1c1ccc(C(F)(F)F)cc1 (centres unmarked) [compound No. 1-2]
corrected mortality, rating of assessment (Plutella xylostella): D or higher

CN1C(=O)C(C(=O)NCc2ccc(F)cc2)=C(O)CC1c1ccc(C(F)(F)F)cc1 (centres unmarked) [compound No. 1-3]
corrected mortality, rating of assessment (Plutella xylostella): D or higher

CN1C(=O)C(C(=S)Nc2ccc(C(F)(F)F)cc2)=C(O)CC1c1ccc(C(F)(F)F)cc1 (centres unmarked) [compound No. 1-9, 4-hydroxy-1-methyl-2-oxo-N, 6-bis(4-(trifluoromethyl)phenyl)-1,2,5,6-tetrahydropyridine-3-carbothioamide]
corrected mortality, rating of assessment (Plutella xylostella): D or higher | corrected mortality, rating of assessment [1]: D or higher

O=C(Nc1ccc(F)cc1)C1=C(S)CC(c2ccc(C(F)(F)F)nc2)NC1=O (centres unmarked) [compound No. 1-28, N-(4-fluorophenyl)-4-mercapto-6-oxo-6′-(trifluoromethyl)-1,2,3,6-tetrahydro-[2,3′-bipyridine]-5-carboxamide]
corrected mortality, rating of assessment (Plutella xylostella): D or higher | corrected mortality, rating of assessment (Laodelphax striatellus): D or higher | corrected mortality, rating of assessment [1]: D or higher

CSC1=C(C(=O)Nc2ccc(F)cc2)C(=O)NC(c2ccc(C(F)(F)F)nc2)C1 (centres unmarked) [compound No. 1-29, N-(4-fluorophenyl)-4-(methylthio)-6-oxo-6′-(trifluoromethyl)-1,2,3,6-tetrahydro-[2,3′-bipyridine]-5-carboxamide]
corrected mortality, rating of assessment (Plutella xylostella): D or higher

C[S+]([O-])C1=C(C(=O)Nc2ccc(F)cc2)C(=O)NC(c2ccc(C(F)(F)F)nc2)C1 (centres unmarked) [compound No. 1-30, N-(4-fluorophenyl)-4-(methylsulfinyl)-6-oxo-6′-(trifluoromethyl)-1,2,3,6-tetrahydro-[2,3′-bipyridine]-5-carboxamide]
corrected mortality, rating of assessment (Plutella xylostella): D or higher | corrected mortality, rating of assessment (Laodelphax striatellus): D or higher | corrected mortality, rating of assessment [1]: D or higher

CN1CC(C)(c2ccc(C(F)(F)F)cc2)C(O)=C(C(=S)Nc2ccc(F)cc2)C1=O (centres unmarked) [compound No. 3-14, N-(4-fluorophenyl)-4-hydroxy-1,5-dimethyl-2-oxo-5-(4-(trifluoromethyl)phenyl)-1,2,5,6-tetrahydropyridine-3-carbothioamide]
inhibition at 10 µM (Dirofilaria immitis): ≥ 50%
